Measured values taken from ChEMBL document CHEMBL5465560, “Selectivity Literature for EUbOPEN Chemogenomic Library” (2024).

How the values were obtained:
[1] = target: Serine/threonine-protein kinase SIK1 (Homo sapiens) (UniProt P57059); test: Selectivity interaction (KinomeScan (DiscoverX)) EUB0000092b SIK1; conditions: at 10 µM
[2] = target: T1, Inhibitor of nuclear factor kappa-B kinase subunit epsilon (Homo sapiens) (UniProt Q14164); conditions: at 1 µM
T1 sequence (whole entry): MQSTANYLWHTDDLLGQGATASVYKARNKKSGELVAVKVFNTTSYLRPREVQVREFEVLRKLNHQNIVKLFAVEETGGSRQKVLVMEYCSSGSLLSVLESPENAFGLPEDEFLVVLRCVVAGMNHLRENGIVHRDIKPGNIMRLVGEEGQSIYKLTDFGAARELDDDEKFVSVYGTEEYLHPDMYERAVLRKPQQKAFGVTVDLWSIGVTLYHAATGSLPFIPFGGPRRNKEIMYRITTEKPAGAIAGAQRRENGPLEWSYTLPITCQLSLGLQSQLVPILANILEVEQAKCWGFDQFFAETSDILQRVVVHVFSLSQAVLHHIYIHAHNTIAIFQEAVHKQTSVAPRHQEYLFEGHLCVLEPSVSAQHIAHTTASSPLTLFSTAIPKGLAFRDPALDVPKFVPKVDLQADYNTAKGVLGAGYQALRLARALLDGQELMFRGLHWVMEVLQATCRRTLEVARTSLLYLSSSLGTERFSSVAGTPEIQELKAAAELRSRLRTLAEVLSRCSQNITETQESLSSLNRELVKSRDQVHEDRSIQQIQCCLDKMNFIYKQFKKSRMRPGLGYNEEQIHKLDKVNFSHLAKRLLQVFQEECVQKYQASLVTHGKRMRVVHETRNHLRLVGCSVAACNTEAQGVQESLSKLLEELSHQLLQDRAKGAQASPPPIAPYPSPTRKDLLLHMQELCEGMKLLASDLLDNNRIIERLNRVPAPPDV

[3] = target: Bone morphogenetic protein receptor type-1A (Homo sapiens, UniProt P36894); test: Selectivity interaction (KinomeScan (DiscoverX)) EUB0000655a BMPR1A; conditions: at 10 µM
[4] = target: Protein kinase C eta type (Homo sapiens) (UniProt P24723); test: Selectivity interaction (ProQinase) EUB0000171b PRKCH
[5] = target: T2, Serine/threonine-protein kinase LATS1 (Homo sapiens) (UniProt O95835); test: Selectivity interaction (KinomeScan (DiscoverX)) EUB0000666a LATS1; conditions: at 10 µM
T2 sequence (whole entry): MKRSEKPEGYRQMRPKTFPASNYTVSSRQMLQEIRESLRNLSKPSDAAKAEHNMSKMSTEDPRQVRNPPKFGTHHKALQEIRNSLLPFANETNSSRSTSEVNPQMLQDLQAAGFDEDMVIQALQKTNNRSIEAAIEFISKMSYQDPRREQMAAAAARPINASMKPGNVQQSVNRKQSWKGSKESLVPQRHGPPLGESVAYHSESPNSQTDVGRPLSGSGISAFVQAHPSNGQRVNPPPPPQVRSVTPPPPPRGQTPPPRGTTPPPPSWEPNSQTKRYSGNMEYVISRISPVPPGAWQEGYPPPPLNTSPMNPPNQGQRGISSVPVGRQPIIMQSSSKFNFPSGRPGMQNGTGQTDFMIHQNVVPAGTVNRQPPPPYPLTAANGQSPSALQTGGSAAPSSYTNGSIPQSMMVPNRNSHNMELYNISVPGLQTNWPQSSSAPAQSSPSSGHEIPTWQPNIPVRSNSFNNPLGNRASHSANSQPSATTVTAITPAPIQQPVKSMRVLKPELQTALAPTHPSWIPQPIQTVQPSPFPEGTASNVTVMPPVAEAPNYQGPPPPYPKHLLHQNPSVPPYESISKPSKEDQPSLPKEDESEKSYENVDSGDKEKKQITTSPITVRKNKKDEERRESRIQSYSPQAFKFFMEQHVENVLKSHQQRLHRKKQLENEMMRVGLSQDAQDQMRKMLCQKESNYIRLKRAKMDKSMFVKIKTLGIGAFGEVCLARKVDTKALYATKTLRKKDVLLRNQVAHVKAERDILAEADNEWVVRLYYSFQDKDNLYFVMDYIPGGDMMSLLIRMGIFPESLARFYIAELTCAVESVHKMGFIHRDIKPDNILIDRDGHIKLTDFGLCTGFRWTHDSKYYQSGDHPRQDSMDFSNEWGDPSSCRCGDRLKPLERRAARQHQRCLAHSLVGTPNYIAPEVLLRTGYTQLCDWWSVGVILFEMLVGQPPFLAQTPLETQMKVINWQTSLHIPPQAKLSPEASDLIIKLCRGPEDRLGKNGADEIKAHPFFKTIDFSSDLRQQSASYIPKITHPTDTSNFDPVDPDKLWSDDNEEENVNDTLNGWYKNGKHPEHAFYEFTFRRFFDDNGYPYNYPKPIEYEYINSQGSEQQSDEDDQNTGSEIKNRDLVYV

[6] = target: Histone-lysine N-methyltransferase, H3 lysine-79 specific (Homo sapiens, UniProt Q8TEK3); test: Selectivity interaction (Transferase panel (protein, RNA, and DNA methyltransferases. and EP300 (acetyltransferase))) EUB0000270b DOT1L
[7] = target: Tyrosine-protein kinase BAZ1B (Homo sapiens) (UniProt Q9UIG0); test: Selectivity interaction (Bromodomain panel (DSF asssay)) EUB0000270b BAZ1B
[8] = target: Serine/threonine-protein kinase Chk1 (Homo sapiens, UniProt O14757)
[9] = target: Activated CDC42 kinase 1 (Homo sapiens, UniProt Q07912)
[10] = target: Mitogen-activated protein kinase kinase kinase 11 (Homo sapiens) (UniProt Q16584); test: Selectivity interaction (Kinase panel (Invitrogen)) EUB0000639a MAP3K11; conditions: at 200 nM
[11] = target: Dual specificity mitogen-activated protein kinase kinase 2 (Homo sapiens) (UniProt P36507); test: Selectivity interaction (ActivX KiNativ screen (kinase selectivity in THP-1 cell lysates)) EUB0000639a MAP2K2; assay type: subcellular; conditions: lysate
[12] = target: Calcium/calmodulin-dependent protein kinase type 1D (Homo sapiens) (UniProt Q8IU85); test: Selectivity interaction (ActivX KiNativ screen (kinase selectivity in THP-1 cell lysates)) EUB0000639a CAMK1D; assay type: subcellular; conditions: lysate, at 0.04 µM
[13] = target: Serine/threonine-protein kinase PLK1 (Homo sapiens, UniProt P53350); test: Selectivity interaction (ActivX KiNativ screen (kinase selectivity in THP-1 cell lysates)) EUB0000639a PLK1; assay type: subcellular; conditions: lysate, at 0.2 µM
[14] = target: Tyrosine-protein kinase Fes/Fps (Homo sapiens) (UniProt P07332); test: Selectivity interaction (SelectScreen profiling (Invitrogen)) EUB0000607a FES; conditions: at 2 µM
[15] = target: Cyclin-dependent kinase 2 (Homo sapiens, UniProt P24941); test: Selectivity interaction (Kinase panel (literature)) EUB0001199aCl CDK2; conditions: at 1 µM

Dual specificity mitogen-activated protein kinase kinase 2 (Homo sapiens), sequence (P36507 whole entry): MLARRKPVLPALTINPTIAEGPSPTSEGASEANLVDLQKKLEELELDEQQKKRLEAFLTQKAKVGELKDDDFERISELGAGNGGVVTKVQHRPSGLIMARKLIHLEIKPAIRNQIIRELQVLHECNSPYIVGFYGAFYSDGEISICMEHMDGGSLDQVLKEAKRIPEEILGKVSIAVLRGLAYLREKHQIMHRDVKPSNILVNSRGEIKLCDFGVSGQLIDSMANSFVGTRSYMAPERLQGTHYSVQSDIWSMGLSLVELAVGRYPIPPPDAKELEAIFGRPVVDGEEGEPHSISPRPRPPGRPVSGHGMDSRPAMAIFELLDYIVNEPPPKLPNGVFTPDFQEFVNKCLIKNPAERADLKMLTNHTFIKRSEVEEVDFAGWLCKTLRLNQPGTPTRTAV
Histone-lysine N-methyltransferase, H3 lysine-79 specific, sequence (Q8TEK3 whole entry, looked up): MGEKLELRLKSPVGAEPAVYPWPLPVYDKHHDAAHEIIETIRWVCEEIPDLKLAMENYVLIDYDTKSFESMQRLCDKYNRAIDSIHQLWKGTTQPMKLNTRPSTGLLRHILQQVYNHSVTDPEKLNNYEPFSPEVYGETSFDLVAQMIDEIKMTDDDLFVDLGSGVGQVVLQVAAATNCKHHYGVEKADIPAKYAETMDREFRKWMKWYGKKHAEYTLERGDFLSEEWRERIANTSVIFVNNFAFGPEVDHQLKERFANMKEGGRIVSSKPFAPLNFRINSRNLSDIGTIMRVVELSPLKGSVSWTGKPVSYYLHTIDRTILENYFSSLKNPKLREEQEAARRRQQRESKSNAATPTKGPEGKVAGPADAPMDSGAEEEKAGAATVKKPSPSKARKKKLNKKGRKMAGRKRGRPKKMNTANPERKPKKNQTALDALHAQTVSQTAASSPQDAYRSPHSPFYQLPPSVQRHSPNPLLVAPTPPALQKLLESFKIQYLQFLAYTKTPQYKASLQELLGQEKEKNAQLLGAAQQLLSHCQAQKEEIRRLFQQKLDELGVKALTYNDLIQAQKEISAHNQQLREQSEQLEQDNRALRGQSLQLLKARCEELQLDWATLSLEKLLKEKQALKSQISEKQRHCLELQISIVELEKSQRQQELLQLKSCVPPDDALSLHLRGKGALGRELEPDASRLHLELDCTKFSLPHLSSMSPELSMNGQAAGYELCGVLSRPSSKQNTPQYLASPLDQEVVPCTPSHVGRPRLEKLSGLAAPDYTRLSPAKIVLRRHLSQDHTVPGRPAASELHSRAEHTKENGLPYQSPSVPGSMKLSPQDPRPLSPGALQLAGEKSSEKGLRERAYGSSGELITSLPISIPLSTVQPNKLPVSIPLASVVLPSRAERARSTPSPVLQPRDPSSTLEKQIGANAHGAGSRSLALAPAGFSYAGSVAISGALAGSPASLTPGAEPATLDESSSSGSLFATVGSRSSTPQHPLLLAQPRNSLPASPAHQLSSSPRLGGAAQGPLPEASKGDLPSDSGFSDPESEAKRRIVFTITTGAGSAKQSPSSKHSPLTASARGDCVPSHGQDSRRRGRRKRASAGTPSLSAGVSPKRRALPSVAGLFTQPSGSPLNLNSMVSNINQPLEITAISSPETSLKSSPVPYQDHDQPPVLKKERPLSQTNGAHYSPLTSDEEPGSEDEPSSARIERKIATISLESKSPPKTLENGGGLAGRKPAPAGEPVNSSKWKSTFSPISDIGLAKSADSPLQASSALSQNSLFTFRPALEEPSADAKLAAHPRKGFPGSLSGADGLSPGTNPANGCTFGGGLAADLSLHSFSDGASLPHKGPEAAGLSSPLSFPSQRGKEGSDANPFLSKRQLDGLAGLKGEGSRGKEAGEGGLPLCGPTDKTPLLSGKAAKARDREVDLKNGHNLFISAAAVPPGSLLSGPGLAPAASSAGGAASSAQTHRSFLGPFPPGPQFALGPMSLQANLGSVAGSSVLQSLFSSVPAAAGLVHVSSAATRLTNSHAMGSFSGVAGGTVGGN
Protein kinase C eta type (Homo sapiens), sequence (P24723 whole entry): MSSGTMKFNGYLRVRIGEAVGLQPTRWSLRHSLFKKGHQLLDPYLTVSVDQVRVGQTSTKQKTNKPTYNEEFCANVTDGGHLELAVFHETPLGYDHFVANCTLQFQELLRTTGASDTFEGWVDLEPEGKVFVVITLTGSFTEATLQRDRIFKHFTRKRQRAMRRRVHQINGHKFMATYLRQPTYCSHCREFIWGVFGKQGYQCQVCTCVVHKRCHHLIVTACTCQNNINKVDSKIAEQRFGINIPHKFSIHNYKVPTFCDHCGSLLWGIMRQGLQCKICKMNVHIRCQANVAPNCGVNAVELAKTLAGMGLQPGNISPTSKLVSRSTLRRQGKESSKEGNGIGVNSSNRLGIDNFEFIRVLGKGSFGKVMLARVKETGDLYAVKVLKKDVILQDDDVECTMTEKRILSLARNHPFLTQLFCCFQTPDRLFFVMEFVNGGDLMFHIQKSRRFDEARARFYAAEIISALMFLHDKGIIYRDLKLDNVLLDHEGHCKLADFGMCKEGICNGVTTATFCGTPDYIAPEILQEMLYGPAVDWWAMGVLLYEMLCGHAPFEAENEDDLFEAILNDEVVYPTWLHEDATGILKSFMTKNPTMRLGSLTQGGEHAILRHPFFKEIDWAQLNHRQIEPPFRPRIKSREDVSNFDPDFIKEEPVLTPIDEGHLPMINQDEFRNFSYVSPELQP
Serine/threonine-protein kinase Chk1, sequence (O14757 whole entry): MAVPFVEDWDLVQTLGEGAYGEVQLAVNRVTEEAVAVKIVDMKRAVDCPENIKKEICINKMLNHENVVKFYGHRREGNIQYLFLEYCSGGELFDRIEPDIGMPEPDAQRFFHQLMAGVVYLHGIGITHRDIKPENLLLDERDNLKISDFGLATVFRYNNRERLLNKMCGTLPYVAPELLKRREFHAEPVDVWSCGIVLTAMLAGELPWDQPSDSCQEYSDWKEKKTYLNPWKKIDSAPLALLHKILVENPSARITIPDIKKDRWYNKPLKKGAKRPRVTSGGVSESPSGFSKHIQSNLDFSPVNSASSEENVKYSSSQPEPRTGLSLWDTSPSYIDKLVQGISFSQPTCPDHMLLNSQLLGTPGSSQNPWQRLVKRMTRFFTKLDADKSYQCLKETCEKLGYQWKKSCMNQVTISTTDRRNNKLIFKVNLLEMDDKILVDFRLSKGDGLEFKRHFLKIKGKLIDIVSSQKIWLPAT
Bone morphogenetic protein receptor type-1A, sequence (P36894 whole entry): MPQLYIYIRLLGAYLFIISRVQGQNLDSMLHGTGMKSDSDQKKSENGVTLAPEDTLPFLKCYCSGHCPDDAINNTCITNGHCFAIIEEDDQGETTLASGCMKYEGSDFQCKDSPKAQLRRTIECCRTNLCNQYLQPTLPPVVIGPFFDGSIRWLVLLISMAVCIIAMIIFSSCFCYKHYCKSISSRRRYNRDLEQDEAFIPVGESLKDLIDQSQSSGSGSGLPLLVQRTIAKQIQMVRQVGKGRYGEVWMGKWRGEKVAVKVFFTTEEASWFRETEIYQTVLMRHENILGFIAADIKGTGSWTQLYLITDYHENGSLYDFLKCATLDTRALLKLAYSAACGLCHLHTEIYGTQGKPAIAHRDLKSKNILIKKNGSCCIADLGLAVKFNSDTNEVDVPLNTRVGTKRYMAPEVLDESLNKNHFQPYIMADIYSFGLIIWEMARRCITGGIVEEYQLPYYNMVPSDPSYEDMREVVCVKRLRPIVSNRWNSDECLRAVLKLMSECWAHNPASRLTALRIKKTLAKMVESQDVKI
Serine/threonine-protein kinase PLK1, sequence (P53350 whole entry): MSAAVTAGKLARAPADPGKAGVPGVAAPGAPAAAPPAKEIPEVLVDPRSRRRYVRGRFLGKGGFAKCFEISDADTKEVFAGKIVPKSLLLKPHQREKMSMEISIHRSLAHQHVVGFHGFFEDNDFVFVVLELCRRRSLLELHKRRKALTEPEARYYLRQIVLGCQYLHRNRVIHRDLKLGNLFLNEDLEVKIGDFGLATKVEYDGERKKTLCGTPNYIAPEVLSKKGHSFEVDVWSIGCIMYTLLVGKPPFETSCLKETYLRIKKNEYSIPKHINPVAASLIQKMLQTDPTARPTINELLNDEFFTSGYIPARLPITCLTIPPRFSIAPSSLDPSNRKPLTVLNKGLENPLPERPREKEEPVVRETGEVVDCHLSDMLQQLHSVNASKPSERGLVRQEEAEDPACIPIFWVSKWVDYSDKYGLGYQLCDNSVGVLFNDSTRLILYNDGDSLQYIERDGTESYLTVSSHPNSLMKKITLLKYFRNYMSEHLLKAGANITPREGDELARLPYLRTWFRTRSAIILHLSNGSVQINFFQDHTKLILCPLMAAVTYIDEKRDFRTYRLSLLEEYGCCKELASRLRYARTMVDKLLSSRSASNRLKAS
Mitogen-activated protein kinase kinase kinase 11 (Homo sapiens), sequence (Q16584 whole entry, looked up): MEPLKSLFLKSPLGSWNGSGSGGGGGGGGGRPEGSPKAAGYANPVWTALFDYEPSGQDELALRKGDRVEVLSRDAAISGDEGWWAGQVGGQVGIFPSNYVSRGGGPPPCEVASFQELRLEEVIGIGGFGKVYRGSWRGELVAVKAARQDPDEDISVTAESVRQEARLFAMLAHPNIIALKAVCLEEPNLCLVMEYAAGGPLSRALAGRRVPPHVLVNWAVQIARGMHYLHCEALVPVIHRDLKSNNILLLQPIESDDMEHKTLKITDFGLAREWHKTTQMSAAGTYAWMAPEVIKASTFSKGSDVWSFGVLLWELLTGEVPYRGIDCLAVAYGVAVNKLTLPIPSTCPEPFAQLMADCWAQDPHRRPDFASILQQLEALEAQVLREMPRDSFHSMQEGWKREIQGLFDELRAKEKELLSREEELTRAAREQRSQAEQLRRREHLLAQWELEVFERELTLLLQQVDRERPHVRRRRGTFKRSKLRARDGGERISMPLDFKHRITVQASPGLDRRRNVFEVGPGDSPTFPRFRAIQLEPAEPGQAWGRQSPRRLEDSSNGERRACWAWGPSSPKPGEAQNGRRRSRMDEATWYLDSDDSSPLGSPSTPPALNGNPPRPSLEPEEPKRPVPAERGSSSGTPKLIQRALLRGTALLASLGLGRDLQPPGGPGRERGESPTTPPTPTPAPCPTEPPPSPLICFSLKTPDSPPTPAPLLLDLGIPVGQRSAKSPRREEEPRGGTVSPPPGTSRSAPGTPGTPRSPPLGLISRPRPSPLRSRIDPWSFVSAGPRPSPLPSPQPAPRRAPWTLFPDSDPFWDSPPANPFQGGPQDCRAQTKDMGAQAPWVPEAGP

Compound `CCC(=O)N1CCN(c2ccc(-n3c(=O)ccc4cnc5ccc(-c6cnc7ccccc7c6)cc5c43)cc2C(F)(F)F)CC1` has a % of control [1] of 80%.

For `Cc1ccc(-c2ccc3c(ccc4sc5c(c43)NC[C@@H](C)NC5=O)n2)cn1`, the % of inhibition [2] was 11%.

`CN(C)CCOc1ccc(-c2nc(-c3ccncc3)c(-c3ccc4c(c3)CC/C4=N\O)[nH]2)cc1` showed a % of control [3] of 100%.

With `C=CC(=O)Nc1cccc(C(=O)Nc2ccc(Nc3cc(-c4[nH]c(SC)nc4C)ccn3)cc2)c1` the % of control ([4]; at 1 µM) was 91% and the % of control ([4]; at 5 µM) was 78%.

Compound `O=C(NOC[C@H](O)CO)c1ccc(F)c(F)c1Nc1ccc(I)cc1F` has a % of control [5] of 100%.

Compound `Cc1cc(CN)cc(C)c1-c1ncn(C)c1-c1cncn1C` has a % activity ([6]; at 1 µM) greater than 90%, a % activity ([6]; at 10 µM) greater than 80% and a dTM [7] of -1.22 K.

`CCc1cccc(CC)c1NC(=O)c1nn(C)c2c1CCc1cnc(Nc3ccc(C(=O)NC4CCN(C)CC4)cc3OC(F)(F)F)nc1-2` was tested, and the IC50 [8] was greater than 10 µM and the IC50 [9] was greater than 10 µM.

With `CC[C@@H]1[C@H](F)C(=O)N[C@@H]1COc1nccc2cc(C(N)=O)c(OC)cc12` [ZIMLOVISERTIB] the % of inhibition [10] was 0.995%, the % of inhibition ([11]; at 0.01 µM) was -25.6% and the % of inhibition ([11]; at 0.04 µM) was -4.8%. For the same compound, the % of inhibition ([11]; at 0.2 µM) was -3.6%, the % of inhibition ([11]; at 1 µM) was 3.1% and the % of inhibition ([11]; at 5 µM) was 18.5%. The % of inhibition [12] was -15.2% and the % of inhibition [13] was -0.2%.

`CNC(=O)Nc1ccc(-c2nc(N3CC4CCC(C3)O4)c3cnn(C4CCC5(CC4)OCCO5)c3n2)cc1` was tested, and the % of inhibition [14] was -1%.

For `CN1Cc2nccc(-c3cn(C)nc3-c3ccc(F)cc3)c2C1=O`, the % of inhibition [15] was 4%.
